In US6930088B2, “Conformationally constrained backbone cyclized somatostatin analogs” (Peptor Ltd., priority 1998, dated 2005):
Where two headings read alike, the source gives them in different places. *1 amine or outer side, *2 acyl side, *3 side chain or, on linkers, in order; H or OH if unused. Where a SMILES comes first, the peptide text is derived from it. Bridges are numbered along the chain shown (N, C = ends). Where no end group is shown, it is not given here. [ ]: non-standard residue; d: D form. Phe(Nα-CH2CH2CO) = O=C([C@H](Cc1ccccc1)N(CCC(=O)[*:3])[*:1])[*:2]; N(2-aminoethyl)Phe = O=C([C@H](Cc1ccccc1)N(CCN[*:3])[*:1])[*:2]; N(2-mercaptoethyl)Gly = O=C(CN(CCS[*:3])[*:1])[*:2]; N(CH2CH2CO)Gly = O=C(CN(CCC(=O)[*:3])[*:1])[*:2]; d2Nal = N[C@H](Cc1ccc2ccccc2c1)C(=O)O

What was measured:
SSTR-2 = molecular target: T1, SSTR-2 (Homo sapiens, UniProt P30874); assay: Inhibition of 125I-Tyr11-SRIF binding to membrane preparations expressing SSTR-2
T1 construct: expressed in transfected cells
Protocol: (§1) The receptor preparations used for these tests were either from the cloned human receptors selectively and stably expressed in Chinese Hamster Ovary (CHO) cells or from cell lines naturally expressing the SSTRs. […] The binding reactions were filtered, the filters were washed and the bound radioactivity was counted in gamma counter. Non specific binding was defined as the radioactivity remaining bound in the presence of 1 μM unlabeled SRIF-14.
(§2) In order to validate positive signals of the binding tests, and to eliminate non-specific signals, samples of irrelevant peptides, such as GnRH, that were synthesized and handled using the same procedures, were tested in the same assays as negative control samples. These samples had no binding activity in any of the assays. Results are shown below in Tables 5 and 6 and FIG. 1.

SSTR-5 = molecular target: T2, SSTR-5 (Homo sapiens, UniProt P35346); assay: Inhibition of 125I-Tyr11-SRIF binding to membrane preparations expressing SSTR-5
T2 construct: expressed in transfected cells
Protocol: as §1, §2

[1] = cited from earlier work
[2] = In vitro biostability in renal homogenate (HPLC); details: kidney or brush border membranes
Protocol: The assay was based on HPLC determination of peptide degradation as a function of time in renal homogenate at 37° C.

SSTR-3 = molecular target: T3, SSTR-3 (Homo sapiens, UniProt P32745); assay: Inhibition of 125I-Tyr11-SRIF binding to membrane preparations expressing SSTR-3
T3 construct: expressed in transfected cells
Protocol: as §1, with “The somatostatin analogs were tested for their potency in inhibition of the binding of ^125I-Tyr^11-SRIF (based on the method described by Raynor et. al., Molecular Pharmacology, 1993, 43, 838-844) to membrane preparations expressing the transmembranal somatostatin receptors (SSTR-1, 2, 3, 4 or 5). The receptor” for “The receptor”
as §2

[3] = system: somatostatin receptors (SSTR-1, 2, 3, 4 or 5); assay: Somatostatin receptor subtype selectivity of binding; design: species or system human; details: in words
Protocol: The somatostatin analogs were tested for their potency in inhibition of the binding of ^125I-Tyr^11-SRIF (based on the method described by Raynor et. al., Molecular Pharmacology, 1993, 43, 838-844) to membrane preparations expressing the transmembranal somatostatin receptors (SSTR-1, 2, 3, 4 or 5). The receptor preparations used for these tests were either from the cloned human receptors selectively and stably expressed in Chinese Hamster Ovary (CHO) cells or from cell lines naturally expressing the SSTRs. Typically, cell membranes were homogenated in Tris buffer in the presence of protease inhibitors and incubated for 30-40 minutes with ^125I-Tyr^11-SRIF with different concentrations of the tested sample. The binding reactions were filtered, the filters were washed and the bound radioactivity was counted in gamma counter. Non specific binding was defined as the radioactivity remaining bound in the presence of 1 μM unlabeled SRIF-14.
as §2

[4] = Table 15, read-out: IC50 (nM) for SST-R 2
[5] = IV, from Sandostatin overview, Sandoz 1992
[6] = SC, from Sandostatin overview, Sandoz 1992

T2 sequence (P35346 whole entry): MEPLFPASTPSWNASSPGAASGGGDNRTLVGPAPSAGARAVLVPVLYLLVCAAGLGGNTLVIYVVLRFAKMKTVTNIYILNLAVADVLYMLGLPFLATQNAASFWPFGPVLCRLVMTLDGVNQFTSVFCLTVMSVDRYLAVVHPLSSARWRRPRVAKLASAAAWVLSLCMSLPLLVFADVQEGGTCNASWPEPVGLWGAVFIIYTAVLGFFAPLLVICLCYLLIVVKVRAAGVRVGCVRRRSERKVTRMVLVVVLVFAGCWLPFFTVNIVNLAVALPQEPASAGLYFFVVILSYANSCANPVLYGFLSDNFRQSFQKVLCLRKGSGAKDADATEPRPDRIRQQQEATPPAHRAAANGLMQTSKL
T1 sequence (P30874 whole entry): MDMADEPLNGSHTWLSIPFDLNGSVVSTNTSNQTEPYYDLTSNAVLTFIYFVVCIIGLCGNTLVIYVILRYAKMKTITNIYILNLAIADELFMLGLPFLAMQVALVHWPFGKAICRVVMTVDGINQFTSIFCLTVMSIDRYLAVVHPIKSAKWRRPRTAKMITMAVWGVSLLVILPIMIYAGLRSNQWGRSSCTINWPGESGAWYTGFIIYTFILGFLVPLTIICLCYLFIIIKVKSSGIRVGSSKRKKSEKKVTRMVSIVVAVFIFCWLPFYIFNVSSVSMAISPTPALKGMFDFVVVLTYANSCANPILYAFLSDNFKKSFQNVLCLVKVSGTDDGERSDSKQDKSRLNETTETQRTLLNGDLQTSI
T3 sequence (P32745 whole entry): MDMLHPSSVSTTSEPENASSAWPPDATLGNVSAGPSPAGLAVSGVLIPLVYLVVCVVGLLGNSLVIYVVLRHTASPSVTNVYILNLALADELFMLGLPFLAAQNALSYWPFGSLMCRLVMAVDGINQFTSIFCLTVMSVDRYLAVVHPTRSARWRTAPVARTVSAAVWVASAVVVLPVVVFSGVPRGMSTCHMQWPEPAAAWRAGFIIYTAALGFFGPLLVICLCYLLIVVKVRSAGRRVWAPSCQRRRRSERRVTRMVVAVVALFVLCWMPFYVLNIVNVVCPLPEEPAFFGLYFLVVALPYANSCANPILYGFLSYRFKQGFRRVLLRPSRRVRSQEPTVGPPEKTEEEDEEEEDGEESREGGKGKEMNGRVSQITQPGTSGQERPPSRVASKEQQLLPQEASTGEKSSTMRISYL

`C[C@@H](O)[C@@H]1NC(=O)[C@H](CCCCN)NC(=O)[C@@H](Cc2c[nH]c3ccccc23)NC(=O)[C@H](Cc2c[nH]c3ccccc23)NC(=O)[C@H](Cc2ccccc2)NC(=O)[C@@H](N)CSSCCN(CC(N)=O)C(=O)[C@H](Cc2ccccc2)NC1=O` [PTR 3197, Cys*-Phe-Trp-(D)Trp-Lys-Thr-Phe-Gly(S2)*-NH2] (H-CFW[dW]KTF[N(2-mercaptoethyl)Gly]-NH2; disulfide 1-8; N-terminus assumed) gave an IC50 (SSTR-2; [4]) of 4 nM and an IC50 (SSTR-5; Table 15, read-out: IC50 (nM) for SST-R 5) of 1 nM.
For `C[C@@H](O)[C@@H]1NC(=O)[C@H](CCCCN)NC(=O)[C@@H](Cc2c[nH]c3ccccc23)NC(=O)[C@H](Cc2ccccc2)NC(=O)[C@@H](NC(=O)[C@H](N)Cc2ccccc2)CSSC[C@@H](C(=O)N[C@H](CO)[C@@H](C)O)NC1=O` [Octreotide], the “Clearance” value [1, 5] is given as 17.6 mL/min/kg, the “T½β (min) circulating half life” value [1, 5] is given as 49 min and the “Vss (ml/kg) Volume of distribution” value [1, 5] is given as 602 mL/kg. For the same molecule, the circulation half-life ([1]; Octreotide) was 40 min, the “Clearance” value [1, 6] was 17.1 mL/min/kg and the “F (%) Bioavailability” value [1, 6] was 103%. For the same molecule, the “T½β (min) circulating half life” value [1, 6] was 40 min, the remaining at 1 h [2] was 100% and the remaining at 3 h [2] was 100%. For the same molecule, the remaining at 24 h [2] was 100%.
`NCCCC[C@H]1NC(=O)[C@@H](Cc2c[nH]c3ccccc23)NC(=O)[C@H](Cc2ccccc2)NC(=O)[C@H](Cc2ccccc2)NC(=O)[C@H](Cc2ccccc2)NC(=O)CCN([C@@H](Cc2ccccc2)C(N)=O)C1=O` [PTR 3171, Phe*-Phe-Phe-(D)Trp-(D)Lys-Phe(C2)-X] (FFF[dW][dK][Phe(Nα-CH2CH2CO)]-NH2; lactam N-6) showed an inhibition at 1 µM (SSTR-5; SST-R5, 10^−6M, read-out: Percent inhibition of SRIF-14 binding) of 60%, an inhibition at 0.1 µM (SSTR-5; SST-R5, 10^−7M, read-out: Percent inhibition of SRIF-14 binding) of 10% and an inhibition at 0.01 µM (SSTR-5; SST-R5, 10^−8M, read-out: Percent inhibition of SRIF-14 binding) of 18%. The remaining at 1 h [2] was 100%, the remaining at 3 h [2] was 100% and the remaining at 24 h [2] was 100%. For the same molecule, the inhibition at 1 µM (SSTR-3; SST-R3, 10^−6M, read-out: Percent inhibition of SRIF-14 binding) was 87%, the inhibition at 0.1 µM (SSTR-3; SST-R3, 10^−7M, read-out: Percent inhibition of SRIF-14 binding) was 40% and the inhibition at 0.01 µM (SSTR-3; SST-R3, 10^−8M, read-out: Percent inhibition of SRIF-14 binding) was 12%.
`C[C@@H](O)[C@@H]1NC(=O)[C@H](CCCCN)NC(=O)[C@@H](Cc2c[nH]c3ccccc23)NC(=O)[C@H](Cc2c[nH]c3ccccc23)NC(=O)[C@H](Cc2ccccc2)NC(=O)CN(C(=O)[C@H](N)Cc2ccccc2)CCSSCCN(CC(N)=O)C(=O)[C@H](Cc2ccccc2)NC1=O` [PTR 3219, (D)Phe-Gly(S2)*-Phe-Trp-(D)Trp-Lys-Thr-Phe-Gly(S2)*-NH2] gave an IC50 (SSTR-2) of 4 nM.
In the case of “Phe(N2)-Tyr-(D)2Nal-Lys-Val-Gly(C2)-Thr-X ([N(2-aminoethyl)Phe]Y[d2Nal]KV[N(CH2CH2CO)Gly]T; lactam 1-6; not fully specified; printed as Phe(N2)-Tyr-(D)2Nal-Lys-Val-Gly(C2)-Thr-X) [PTR 3209]”, the “somatostatin receptor subtype selectivity” value [3] is reported as “selective for the type 1 receptor”.
For “Phe(N2)-Tyr-(D)Trp-Lys-Val-Val-Gly(C2)-X ([N(2-aminoethyl)Phe]Y[dW]KVV[N(CH2CH2CO)Gly]; lactam 1-7; not fully specified) [PTR 3185]”, the “somatostatin receptor subtype selectivity” value [3] was “selective for the type 5 somatostatin receptor”.
`C[C@@H](O)[C@@H]1NC(=O)[C@H](CCCCN)NC(=O)[C@@H](Cc2c[nH]c3ccccc23)NC(=O)[C@H](Cc2c[nH]c3ccccc23)NC(=O)[C@H](Cc2ccccc2)NC(=O)CCSSCCN(CC(N)=O)C(=O)[C@H](Cc2ccccc2)NC1=O` [PTR 3217, 3-Thiopropanoic-acid*-Phe-Trp-(D)Trp-Lys-Thr-Phe-Gly(S2)*-NH2] gave an IC50 (SSTR-2; [4]) of 37 nM and an IC50 (SSTR-3; Table 15, read-out: IC50 (nM) for SST-R 3) of 100 nM.
`C[C@@H](O)[C@@H]1NC(=O)[C@H](CCCCN)NC(=O)[C@@H](Cc2c[nH]c3ccccc23)NC(=O)[C@H](Cc2c[nH]c3ccccc23)NC(=O)[C@H](Cc2ccccc2)NC(=O)[C@@H](NC(=O)[C@H](N)Cc2ccccc2)CSSCCN(CC(N)=O)C(=O)[C@H](Cc2ccccc2)NC1=O` [PTR 3207, (D)Phe-Cys*-Phe-Trp-(D)Trp-Lys-Thr-Phe-Gly(S2)*-NH2] showed an IC50 (SSTR-2; [4]) of 1 to 12 nM.
